Results reported in patent publication US8030518B2, “1,4 diamino bicyclic retigabine analogues as potassium channel modulators” (Valeant Pharmaceuticals International, priority 2006, dated 2011).
pEC50: −log10 of the molar value.

Assays:
[1] = system: maximal electroshock seizure; experiment: rat maximal electroshock seizure (MES) test; type: in vivo
Source text: (§1) The MES testing protocol is based on procedures established at the National Institute of Neurological Disorders and Stroke in conjunction with the Anticonvulsant Screening Program (ASP) at the University of Utah (White, H. S., Woodhead, J. H., Wilcox, K. S., Stables, J. P., Kupferberg, H. J and Wolf, H. H. 2002. “General Principles: Discovery and Preclinical Development of Antiepileptic Drugs,” in Antiepileptic Drugs, 5th Edition, R. H. Levy, ed.; R. H. Mattson, B. S. Meldrum, and E. Perucca. Philadelphia, Lippincott Williams & Wilkins.), The goal of the test is to rapid identify and characterize the in vivo anticonvulsant activity of any compounds that have been shown active in PC-12 cellular based Rb^+ efflux assay.
(§2) Adult male CF-1 albino mice (18-25 g, Charles River Laboratories) are […] used for MES screening of compounds. Male Sprague-Dawley albino rats (100-125 g, Charles River Laboratories) are also used to test anticonvulsant compounds. Animals are permitted to rest and recover from transit for at least 48 hr prior to experimentation. Animals are used for AED testing only once. In some instances, the animals can be anesthetized prior to blood collection or whole brain extraction for pharmacokinetic assay. All animals are maintained and handled as outlined in standard animal care guidelines.
In the experiments, testing compounds are prepared as suspensions in 0.5% methyl cellulose (Sigma, Cat # M0512, Viscosity 4000 cP at 20° C.) in water, regardless of solubility. Dry powder compounds are initially ground with a glass rod in a test tube in several drops of methyl cellulose to create a paste and to break down any large chunks. After several minutes of grinding, the volume of the suspension is increased to the final concentration desired. The suspension is then sonicated using a Branson sonicator model 3510 in a water bath at room temperature for 15 minutes. Compound suspensions are further vortexed prior to animal dosing. In some of the cases, DMSO is used to initially solubilize compounds in small volumes and then this solution is added to the 0.5% methyl cellulose solution, in order to create more even and less aggregated compound suspensions. The final concentration of DMSO is 3.75%, an amount with no apparent toxicity or neuroprotective effects in our usual rotarod and MES tests. Methyl cellulose/DMSO compound suspensions are identically prepared for intraperitoneally (i.p.)dosing to mice or orally (p.o.) dosing to rats. […]
A Rodent Electroconvulsive Stimulator (Model 200, Hamit-Darvin-Freesh, Snow Canyon Clinic, Ivins, Utah) is used for MES testing. […] Animals are monitored for hind limb tonic extension as the end point for this test. Current delivery is recorded as a measure of overall seizure-induction potential. […]

[2] = system: maximal electroshock seizure; experiment: mouse maximal electroshock seizure (MES) test; type: in vivo; set-up: key: A: active; B: inactive; conditions: ip dosing of 12.5 mg/kg
Source text: as §1, §2
In the experiments, testing compounds are prepared as suspensions in 0.5% methyl cellulose (Sigma, Cat # M0512, Viscosity 4000 cP at 20° C.) in water, regardless of solubility. Dry powder compounds are initially ground with a glass rod in a test tube in several drops of methyl cellulose to create a paste and to break down any large chunks. After several minutes of grinding, the volume of the suspension is increased to the final concentration desired. The suspension is then sonicated using a Branson sonicator model 3510 in a water bath at room temperature for 15 minutes. Compound suspensions are further vortexed prior to animal dosing. In some of the cases, DMSO is used to initially solubilize compounds in small volumes and then this solution is added to the 0.5% methyl cellulose solution, in order to create more even and less aggregated compound suspensions. The final concentration of DMSO is 3.75%, an amount with no apparent toxicity or neuroprotective effects in our usual rotarod and MES tests. Methyl cellulose/DMSO compound suspensions are identically prepared for intraperitoneally (i.p.)dosing to mice or orally (p.o.) dosing to rats.
Initially the animals are weighed with an electronic scale and then marked. Data recording sheets are generated for each compound assessment. Mice or rats are dosed with the compound suspension at 0.01 mL/g of body weight. The typical injection volume range is between 180-250 μl for mice. Compounds are dosed by i.p. to mice using a 25 or 22 gauge needle, depending on the viscosity of the suspension. Rats are p.o. dosed using a flexible feeding tube, typically starting at a compound dose of 5 mg/kg.
A Rodent Electroconvulsive Stimulator (Model 200, Hamit-Darvin-Freesh, Snow Canyon Clinic, Ivins, Utah) is used for MES testing. A 60-Hz alternating current (50 mA for mice; 150 mA for rats) is delivered for 0.2 seconds through corneal electrodes to the mice. A drop of 0.5% tetracaine (Sigma, Cat. # T-7508) solution is placed on the eye prior to current delivery. The electrodes are subsequently placed gently onto the eyes of the animal and the electrical shock is initiated by triggering through a foot-pedal activator. The animals are restrained by hand and gently released as the shock is delivered and the seizure commences. Animals are monitored for hind limb tonic extension as the end point for this test. Current delivery is recorded as a measure of overall seizure-induction potential. Electrical current delivery can vary from approximately 30-55 mA (mice) or 90-160 mA (rats) depending on impedance in the animal and quality of the current delivery (i.e. correct placement of the electrodes on the cornea). […]

KCNQ2/3 heteromultimers = biological target: T1, KCNQ2/3 heteromultimers (Rattus norvegicus, UniProt O88943+O88944); experiment: cell-based Rb+ efflux assay in PC-12 cells; conditions: Rb+ efflux cellular assay
T1 construct: endogenous in cells; host or cells: PC-12 cells differentiated with NGF-7s; no transfection described
Method: Compounds of this invention formula were evaluated for activity toward potassium channels in a cell-based Rb^+ efflux assay. This cellular bioassay is believed to faithfully represent the M channel activities identified with KCNQ2/3 heteromultimers. […] Additionally, antiseizure activity in vivo was evaluated in a mouse maximal electroshock seizure (MES) model, and neurotoxicities were determined from a rotorod neurocognitive motor impairment model and open field observation.
PC-12 cells were grown at 37° C. and 5% CO2 in DMEM/F12 Medium (Dulbecco's Modified Eagle Medium with Nutrient Mix F-12, available from Invitrogen of Carlsbad, Calif.), supplemented with 10% horse serum, 5% fetal bovine serum, 2 mM glutamine, 100 U/ml penicillin, and 100 U/ml streptomycin. They were plated in poly-D-lysine-coated 96-well cell culture microplates at a density of 40,000 cells/well and differentiated with 100 ng/ml NGF-7s for 2-5 days. For the assay, the medium was aspirated, and the cells were washed once with 0.2 ml wash buffer (25 mM HEPES, pH 7.4, 150 mM NaCl, 1 mM MgCl2, 0.8 mM NaH2PO4, 2 mM CaCl2). The cells were then loaded with 0.2 ml Rb^+ loading buffer (wash buffer plus 5.4 mM […], 5 mM glucose) and incubated at 37° C. for 2 h. Attached cells were washed quickly three times with buffer (same as Rb^+ loading buffer, but containing 5.4 mM KCl instead of RbCl) to remove extracellular Rb^+. Immediately following the wash, 0.2 ml of depolarization buffer (wash buffer plus 15 mM KCl solution) with or without compounds was added to the cells to activate efflux of potassium ion channels. After incubation for 10 min at room temperature, the supernatant was carefully removed and collected. Cells were lysed by the addition of 0.2 ml of lysis buffer (depolarization buffer plus 0.1% Triton X-100) and the cell lysates were also collected. If collected samples were not immediately analyzed for Rb^+ contents by atomic absorption spectroscopy (see below), they were stored at 4° C. without any negative effects on subsequent Rb^+ analysis.
The concentrations of Rb^+ in the supernatants (Rb^+Sup) and the cell lysates (Rb^+Lys) were quantified using an ICR8000 flame atomic absorption spectrometer (Aurora Biomed Inc., Vancouver, B.C.) under conditions defined by the manufacturer. Samples 0.05 ml in volume were processed automatically from microtiter plates by dilution with an equal volume of Rb^+ sample analysis buffer and injection into an air-acetylene flame. The amount of Rb^+ in the sample was measured by absorption at 780 nm using a hollow cathode lamp as light source and a PMT detector. A calibration curve covering the range 0-5 mg/L Rb^+ in sample analysis buffer was generated with each set of plates. The percent Rb^+ efflux (F) was defined by F=[Rb^+Sup/(Rb^+Sup+Rb^+Lys)]×100%. […] The efflux (F) and compound concentration relationship was plotted to calculate an EC50 value, a compound's concentration for 50% of maximal Rb^+ efflux. Seizure Model Tests

Cc1cc2c(c(C)c1NC(=O)CC(C)(C)C)CCC2Nc1ccc(F)cc1 (single isomer, unassigned; (-)) [Example 12, (−) N-(1-(4-fluorophenylamino)-4,6-dimethyl-2,3-dihydro-1H-inden-5-yl)-3,3-dimethylbutanamide]
ED50 [1]: < 20 mg/kg | Mouse MES test [2]: A | pEC50 (KCNQ2/3 heteromultimers): ≥ 9.00

Cc1cc2c(c(C)c1NC(=O)CC(C)(C)C)CCC2Nc1ccc(C(F)(F)F)cc1 (single isomer, unassigned; (-)) [Example 15, (−) N-(4,6-dimethyl-1-(4-(trifluoromethyl)phenylamino)-2,3-dihydro-1H-inden-5-yl)-3,3-dimethylbutanamide]
ED50 [1]: < 20 mg/kg | Mouse MES test [2]: A | pEC50 (KCNQ2/3 heteromultimers): ≥ 9.00

Cc1cc2c(c(C)c1NC(=O)CC(C)(C)C)CCC2Nc1ccc(F)cc1 (stereo not shown) [Example 11, N-(1-(4-fluorophenylamino)-4,6-dimethyl-2,3-dihydro-1H-inden-5-yl)-3,3-dimethylbutanamide]
ED50 [1]: < 20 mg/kg | Mouse MES test [2]: A | pEC50 (KCNQ2/3 heteromultimers): 8.00 to 9.00

Cc1cc2c(c(C)c1NC(=O)CC(C)(C)C)CCC2Nc1ccc(C(F)(F)F)cc1 (stereo not shown) [Example 14, N-(4,6-dimethyl-1-(4-(trifluoromethyl)phenylamino)-2,3-dihydro-1H-inden-5-yl)-3,3-dimethylbutanamide]
ED50 [1]: < 20 mg/kg | Mouse MES test [2]: A | pEC50 (KCNQ2/3 heteromultimers): 8.00 to 9.00

Cc1cc2c(c(C)c1NC(=O)CC(C)(C)C)CCC2Nc1ccc(F)nc1 (stereo not shown) [Example 23, N-(1-(6-fluoropyridin-3-ylamino)-4,6-dimethyl-2,3-dihydro-1H-inden-5-yl)-3,3-dimethylbutanamide]
Mouse MES test [2]: A | pEC50 (KCNQ2/3 heteromultimers): 6.30 to 7.30

Cc1cc2c(c(C)c1NC(=O)CC(C)(C)C)CCC2Nc1ccc(C(F)(F)F)nc1 (stereo not shown) [Example 24, N-(1-(6-trifluoromethylpyridin-3-ylamino)-4,6-dimethyl-2,3-dihydro-1H-inden-5-yl)-3,3-dimethylbutanamide]
Mouse MES test [2]: A | pEC50 (KCNQ2/3 heteromultimers): 7.30 to 8.00
